Structures can show the parent of a compound that is named as a salt.
SMILES | melting point
Cc1ccc(C)c(-c2sc(NC(=O)[C@H]3C[C@@H]4CC[C@H]3C4)c(C#N)c2C(F)(F)F)c1 | 242 °C
Cc1ccc(C)c(-c2sc(NC(=O)[C@H]3C[C@H]4C=C[C@@H]3C4)c(C#N)c2C(F)(F)F)c1 | 209 to 211 °C
Cc1ccc(C)c(-c2sc(NC(=O)[C@@H]3C[C@H]4C=C[C@@H]3C4)c(C#N)c2C(F)(F)F)c1 | 226 to 227 °C
Cc1ccc(C)c(-c2sc(NC(=O)[C@@H]3C[C@@H]4C=C[C@H]3C4)c(C#N)c2C(F)(F)F)c1 | 213 to 214 °C
Cc1ccc(C)c(C2SC(NC(=O)C3CC4CCC3CC4)=C(C#N)C2(Cl)C(F)(F)F)c1 (stereo not shown) | 242 to 244 °C
Cc1ccc(C)c(-c2cc(C#N)c(NC(=O)[C@@H]3C[C@@H]4CC[C@H]3C4)s2)c1 | 168 to 169 °C
Cc1ccc(N(C)CCCc2sc(NC(=O)[C@@H]3C[C@@H]4CC[C@H]3C4)c(C#N)c2C)cc1 (as salt: hydrochloride) | 116 to 129 °C (dec.)
Cc1ccc(N(C)CCCc2sc(NC(=O)C3CC4CCC3CC4)c(C#N)c2C)cc1 (stereo not shown) (as salt: hydrochloride) | 133 to 140 °C

The remaining lines, values ahead:

melting point | SMILES
117 to 119 °C | Cc1ccc(C)c(-c2sc(NC(=O)[C@@H]3C[C@@H]4CC[C@H]3C4)c(C#N)c2Cl)c1
175 to 180 °C | N#Cc1c(NC(=O)C2CCCCC2)sc(-c2ccccc2)c1Cl
167 to 168 °C | N#Cc1c(NC(=O)C2CCCCC2)sc(-c2ccccc2)c1Br
208 to 212 °C | N#Cc1c(NC(=O)C2CCCCC2)sc(-c2ccccc2)c1C#N
213 to 214 °C | N#Cc1c(NC(=O)C2CCCCC2)sc(-c2ccccc2)c1[N+](=O)[O-]
146 to 147 °C | CCCc1sc(NC(=O)C2CCCCC2)c(C#N)c1OC
230 °C | Cc1ccc(C)c(-c2sc(NC(=O)[C@H]3C[C@H]4CC[C@@H]3C4)c(C#N)c2C(F)(F)F)c1
239 to 240 °C | Cc1ccc(C)c(-c2sc(NC(=O)[C@@H]3C[C@H]4CC[C@@H]3C4)c(C#N)c2C(F)(F)F)c1
231 to 233 °C | Cc1ccc(C)c(-c2sc(NC(=O)[C@@H]3C[C@@H]4CC[C@H]3C4)c(C#N)c2C(F)(F)F)c1
> 80 °C (dec.) | Cc1c(CCCN(C)c2ccccn2)sc(NC(=O)C2CC3CCC2CC3)c1C#N (stereo not shown) (as salt: hydrochloride)
208 to 210 °C | Cc1ccc(C)c(-c2sc(NC(=O)[C@@H]3C[C@H]4CC[C@@H]3CC4)c(C#N)c2Cl)c1 (stereo in doubt)
